Experimental findings from US20120029016A1, “Indoles Useful in the Treatment of Inflammation” (BIOLIPOX AB, priority 2008, published 2012) are described below.

The target of assay [1] is T1, Recombinant human LTC4 synthase (Homo sapiens, UniProt Q16873).
T1 construct: made in house; host or cells: Pichia pastoris ('Piccia pastoralis' [sic])
T1 sequence (Q16873 1-150): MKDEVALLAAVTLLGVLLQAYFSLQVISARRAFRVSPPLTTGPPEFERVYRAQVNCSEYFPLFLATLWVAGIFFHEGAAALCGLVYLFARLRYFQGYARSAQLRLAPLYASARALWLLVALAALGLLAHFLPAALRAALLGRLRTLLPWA
In words: In vitro assay Method A: LTC4 synthase, LTA4 methyl ester to LTC4 methyl ester, HPLC. It counts as biochemical. Conditions: total concentration of title compound 10 μM, read-out: % inh. of LTC4 synthase. Here is the method:
In the assay, LTC4 synthase catalyses the reaction where the substrate LTA4 methyl ester is converted to the corresponding LTC4 methyl ester. Recombinant human LTC4 synthase is expressed in Piccia pastoralis and the purified enzyme is dissolved in 25 mM Tris-buffer pH 7.8 and stored at −20° C. The assay is performed in phosphate buffered saline (PBS) pH 7.4, supplemented with 5 mM glutathione (GSH). The reaction is terminated by addition of MeCN/MeOH/acetic acid (50/50/1). The assay is performed at rt in 96-well plates. Analysis of the formed LTC4 methyl ester is performed with reversed phase HPLC (Waters 2795 utilizing an Onyx Monolithic C18 column). The mobile phase consists of MeCN/MeOH/H2O (32.5/30/37.5) with 1% acetic acid, pH adjusted with NH3 to 5.6, and absorbance measured at 280 nm with a Waters 2487 UV-detector.
The following is added chronologically to each well: • 1. 50 μL assay buffer, PBS with 5 mM GSH. • 2. 0.5 μL inhibitor in DMSO. • 3. 2 μL LTC4 synthase in PBS. The total protein concentration in this solution is 0.025 mg/mL. Incubation of the plate at rt for 10 min. • 4. 1-1.5 μL LTA4 methyl ester (final conc. 10 μM). Incubation of the plate at rt for 1 min. • 5. 50 μL stop solution. 80 μL of the incubation mixture is analysed with HPLC.

The target in assay [2] is T1, Recombinant human LTC4 synthase. In words: In vitro assay Method B: LTC4 synthase, LTA4 to LTC4, HTRF detection. Conditions: total concentration of title compound 10 μM, read-out: % inh. of LTC4 synthase. It counts as biochemical. As for the experimental part:
In the assay, LTC4 synthase catalyses the reaction where the substrate LTA4 is converted to LTC4. Recombinant human LTC4 synthase is expressed in Piccia pastoralis and the purified enzyme is dissolved in 25 mM Tris-buffer pH 7.8 and stored at −20° C. The assay is performed in phosphate buffered saline (PBS) pH 7.4, supplemented with 5 mM glutathione (GSH). The assay is performed at rt in 384-well plates. Analysis of the formed LTC4 is performed using costume made homogenous time-resolved fluorescence (HTRF) detection (Cisbio).
The following is added chronologically to each well: • 1. 50 μL assay buffer, PBS with 5 mM GSH. • 2. 0.5 μL inhibitor in DMSO. • 3. 2 μl LTC4 synthase in PBS. The total protein concentration in this solution is 0.025 mg/ml. Incubation of the plate at rt for 10 min. • 4. 1-1.5 μL LTA4 (final conc. 2.5 μM). Incubation of the plate at rt for 1 min. 10 μL of the incubation mixture is analysed using HTRF detection.

The subject of assay [3] is cysteinyl leukotrienes concentration in the peritoneal lavage. In words: Mouse peritoneal inflammation model (zymosan ip), cysteinyl leukotrienes in peritoneal lavage by EIA. The format is in vivo, Male BALB/c mice. Conditions: 0.5 h, 5 min before zymosan, lavage 30 min after zymosan, read-out: %-inhibition of cysteinyl leukotrienes concentration vs vehicle treated mice; for inhibition in vivo at 3 mg/kg: 3 mg/kg ip; for inhibition in vivo at 10 mg/kg: 10 mg/kg ip. As for the experimental part: The in vivo efficacy of leukotriene biosynthesis inhibitors was assed by using a model of peritoneal inflammation. Male BALB/c mice (weighing 20-25 grams) received an intraperitoneal injection (ip) of 0.5 ml zymosan dissolved in phosphate buffer saline (PBS) (pH 7.5, 1 mg/mL). 5 Minutes before the zymosan injection compounds (1-10 mg/kg) or vehicle were administered ip (10 mL/kg). 30 min after the zymosan injection the mice were anaesthetized and the peritoneal cavity was flushed with 4 mL PBS. The peritoneal lavage was centrifuged at 6000 rcf for 5 minutes and the cysteinyl leukotrienes concentration in the supernatant was determined by EIA. The cysteinyl leukotrienes concentration in the peritoneal lavage from compound treated mice was compared to vehicle treated mice and the % inhibition was calculated.

Take `O=C(O)Cc1c(C(=O)O)c2cc(Oc3ccc(OC(F)(F)F)cc3)ccc2n1-c1ccc(OCc2ccccc2)cc1` [Example 2:1, 1-(4-Benzyloxyphenyl)-2-carboxymethyl-5-(4-trifluoromethoxyphenoxy)indole-3-carboxylic acid]: the inhibition at 10 µM in assay [1] was 89%.
As for `CCCCCCCCOc1ccc(-n2c(CC(=O)O)c(C(=O)O)c3cc(Oc4ccc(OC(C)C)cc4)ccc32)cc1` [Example 5:2, 2-Carboxymethyl-1-(4-octyloxyphenyl)-5-(4-isopropoxyphenoxy)indole-3-carboxylic acid], in assay [2], the inhibition at 10 µM amounted to 97%. Moreover, in assay [3], the inhibition in vivo at 3 mg/kg came out at 94%.
Turning to `CC(C)Oc1ccc(Oc2ccc3c(c2)c(C(=O)O)c(CC(=O)O)n3-c2ccc(Oc3ccc(Cl)cc3)cc2)cc1` [Example 3:3, 2-Carboxymethyl-1-[4-(4-chlorophenoxy)phenyl]-5-(4-isopropoxy-phenoxy)indole-3-carboxylic acid], in assay [2], the inhibition at 10 µM turned out to be 96%. Moreover, the inhibition in vivo at 10 mg/kg in assay [3] amounted to 100%.
For the molecule `CC(C)Oc1ccc(Oc2ccc3c(c2)c(C(=O)O)c(CC(=O)O)n3-c2ccc(OCc3ccccc3)cc2)cc1` [Example 1:1, 1-(4-Benzyloxyphenyl)-2-carboxymethyl-5-(4-isopropoxyphenoxy)indole-3-carboxylic acid], the inhibition at 10 µM in assay [2] came out at 99%. For the same molecule, the inhibition in vivo at 1 mg/kg in assay [3] (1 mg/kg ip) was 78%. Moreover, in assay [3], the inhibition in vivo at 3 mg/kg came out at 92% and the inhibition in vivo at 10 mg/kg was determined as 100%.
Turning to `CC(C)Oc1ccc(Oc2ccc3c(c2)c(C(=O)O)c(CC(=O)O)n3-c2ccc(OCc3ccccc3C(F)(F)F)cc2)cc1` [Example 1:8, 2-Carboxymethyl-1-5-(4-isopropoxyphenoxy)-[4-(2-trifluoromethyl-benzyloxy)phenyl]indole-3-carboxylic acid], the inhibition at 10 µM in assay [2] is 98%. Moreover, the inhibition in vivo at 10 mg/kg in assay [3] turned out to be 96%.
Consider `CC(C)Oc1ccc(Oc2ccc3c(c2)c(C(=O)O)c(CC(=O)O)n3-c2ccc(OCc3ccc4ccccc4n3)cc2)cc1` [1:10, 2-Carboxymethyl-1-5-(4-isopropoxyphenoxy)-[4-(2-quinolinylmethoxy)-phenyl]indole-3-carboxylic acid], for which the inhibition at 10 µM in assay [1] turned out to be 98%.
